We go through 1 molecule from patent US20060276393A1, “Novel compositions for preventing and treating neurodegenerative and blood coagulation disorders” (Sirtris Pharmaceuticals, Inc., priority 2005, published 2006).

Test [1] addresses recombinant GST-Sir2 (Saccharomyces cerevisiae, UniProt P06700). The experiment in a line: Sir2 deacetylation rate assay. Format: biochemical, S. cerevisiae. As to conditions: in vitro dose-response. The protocol: Average lifespan for wild type, 22.9 generations, quercetin, 23.4; piceatannol.
His6-tagged recombinant SIRT1 and GST-tagged recombinant Sir2 were prepared as previously described^26. From 0.1 to 1 μg of SIRT1 and 1.5 μg of Sir2 were used per deacetylation assay (in 50 μl total reaction) as previously described^26. SIRT1 assays and certain of those for Sir2 employed the p53-382 acetylated substrate (° Fluor de Lys-SIRT1′, BIOMOL) rather than FdL.
Themed compound libraries (BIOMOL) were used for primary and secondary screening. Most polyphenol compounds were dissolved at 10 mM in dimethylsulfoxide (DMSO) on the day of the assay. For water soluble compounds and negative controls, 1% v/v DMSO was added to the assay. In vitro fluorescence assay results were read in white ½-volume 96-well microplates (Coming Costar 3693) with a CytoFluor™. II fluorescence plate reader (PerSeptive Biosystems, Ex. 360 nm, Em. 460 nm, gain=85). HeLa cells were grown and the cellular deacetylation assays were performed and read, as above, but in full-volume 96-well microplates (Coming Costar 3595). […] Calculation of net fluorescence increases included subtraction of a blank value, which in the case of Sir2 was obtained by omitting the enzyme from the reaction and in the case of SIRT1 by adding an inhibitor (200 μM suramin or 1 mM nicotinamide) to the reaction prior to the acetylated substrate. […]

In test [2] the test system is rDNA locus (RDN1). Briefly: Ribosomal DNA recombination and silencing assays. Format: cell-based, S. cerevisiae.
Method: Pre-treated cells (RDN1::URA3) were harvested and spotted as 10-fold serial dilutions on either SC or SC with 5-fluororotic acid (5-FOA).
Ribosomal DNA silencing assays using the URA3 reporters were performed as previously described^26. Ribosomal DNA recombination frequencies were determined by plating W303AR cells^37 on YPD medium with low adenine/histidine and counting the fraction of half-red sectored colonies using Bio-Rad Quantity One software as previously described^35. At least 6000 cells were analyzed per experiment and all experiments were performed in triplicate.
In test [3] the test system is C. elegans. Briefly: C. elegans lifespan. Format: in vivo. As to the method: Thus, the presence of resveratrol in the growth media of C. elegans extends their lifespan.
Bristol N2 (Caenorhabditis Genetics Center) was used as the wild-type strain. The sir-2.1 mutant strain was generated by backcrossing VC199 (sir-2.1(ok434)) to N2 four times. Cultures were grown on standard NGM media and maintained on E. coli strain OP50. For the lifespan assays, synchronized animals were transferred to treatment plates as young adults (2 d after hatching, day 0 of assay), and were transferred to fresh treatment plates every 2 days for the first 6 to 8 days of the assay. […] For some lifespan trials, heat-killed OP50 were used as a food source. OP50 cultures were heated to 65° C. for 30 minutes, then pelleted and resuspended in 1/10 volume in S Basal supplemented with 10 mM MgSO4. In all assays, worms were monitored daily for mortality by gently probing with a platinum pick. Assays were performed at 24° C. To assay worm feeding rates, worms at the indicated stages were placed on treatment plates (no FUdR) for 4-5 hours, then videoed for 1 minute using a Pixelink PL-662 camera. The frame rate was slowed and the pumping rate of the pharynx was counted. To assay fecundity, gravid hermaphrodites (5 per plate, raised from synchronized L1s on normal or treatment plates) were allowed to lay eggs on their respective media for 5 hours, and the total number of eggs was counted.

The target in test [4] is T1, SIRT1 deacetylase (BIOMOL) (Homo sapiens, UniProt Q96EB6).
T1 construct: purchased BIOMOL
T1 sequence (Q96EB6 1-747): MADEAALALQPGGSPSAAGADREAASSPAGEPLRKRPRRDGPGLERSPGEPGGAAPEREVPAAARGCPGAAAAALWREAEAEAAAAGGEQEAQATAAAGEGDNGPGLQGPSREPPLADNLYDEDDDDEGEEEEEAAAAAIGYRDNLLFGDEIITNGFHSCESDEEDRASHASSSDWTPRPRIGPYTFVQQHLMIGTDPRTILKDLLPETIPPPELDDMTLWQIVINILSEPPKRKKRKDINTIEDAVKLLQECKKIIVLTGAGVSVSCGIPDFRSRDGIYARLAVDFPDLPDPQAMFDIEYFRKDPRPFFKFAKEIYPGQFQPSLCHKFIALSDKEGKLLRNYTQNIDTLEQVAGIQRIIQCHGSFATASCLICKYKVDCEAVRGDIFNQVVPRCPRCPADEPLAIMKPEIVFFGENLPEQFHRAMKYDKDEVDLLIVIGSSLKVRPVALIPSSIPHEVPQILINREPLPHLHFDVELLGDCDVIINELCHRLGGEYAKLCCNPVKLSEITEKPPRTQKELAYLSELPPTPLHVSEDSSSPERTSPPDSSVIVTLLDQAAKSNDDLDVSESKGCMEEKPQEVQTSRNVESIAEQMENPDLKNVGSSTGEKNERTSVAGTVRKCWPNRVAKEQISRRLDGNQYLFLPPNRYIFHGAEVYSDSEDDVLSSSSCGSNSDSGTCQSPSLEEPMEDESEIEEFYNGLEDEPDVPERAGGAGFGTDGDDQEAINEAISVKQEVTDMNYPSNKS
The experiment in a line: High-throughput SIRT1 screening protocol (ICCB library). To be noted: positive controls; 200 μM NAD+, 5 μM Fluor de Lys-SIRT1; resveratrol 50 μM. Format: biochemical. As to the method: The reaction mixture contains (final): 0.5 units/reaction SIRT1 deacetylase (BIOMOL); 200 μM NAD^+; 5 μM Fluor de Lys-SIRT1 substrate (BIOMOL); buffer (25 mM Tris/Cl, pH 8.0, 137 mM NaCl, 2.7 mM KCl, 1 mM MgCl2, and 1 mg/ml BSA). In addition, a reaction mixture containing no enzyme was made so that each well receiving compound has a corresponding “no enzyme control” well. Reactions were performed in black 384 well plates (NUNC) in a final volume of 25 μl/well.
The reactions were started by combining enzyme and substrate in a reaction mixture immediately prior to aliquoting in plates (or substrate only for “no enzyme control” plates). Mixture were aliquoted to plates using Biotek μfill (Biotek Instruments). Control mixtures were manually added to designated wells. A library compound was added at a desired concentration by pin transfer to both “with enzyme” and “no enzyme” plates. Compounds were added in at least triplicate (with enzyme reaction in duplicate and no enzyme controls) at a final concentration of roughly 50 μM. The plates were incubated at 37° C for 30-60 minutes. Then 25 μl of 1× Developer II (BIOMOL) plus 2 mM nicotinamide were added to all wells to stop the reactions. The reactions were left for at least 30 minutes at 37° C. for the signal to develop. The plates were read in a microplate-reading fluorometer capable of excitation at a wavelength in the range of 350-380 nm and detection of emitted light in the range of 440-460 nm. A read time of 0.1 sec per well was used.

Each structure is given as a SMILES string. Bounds are passed on as bounds.

recombinant GST-Sir2, sequence (P06700 whole entry): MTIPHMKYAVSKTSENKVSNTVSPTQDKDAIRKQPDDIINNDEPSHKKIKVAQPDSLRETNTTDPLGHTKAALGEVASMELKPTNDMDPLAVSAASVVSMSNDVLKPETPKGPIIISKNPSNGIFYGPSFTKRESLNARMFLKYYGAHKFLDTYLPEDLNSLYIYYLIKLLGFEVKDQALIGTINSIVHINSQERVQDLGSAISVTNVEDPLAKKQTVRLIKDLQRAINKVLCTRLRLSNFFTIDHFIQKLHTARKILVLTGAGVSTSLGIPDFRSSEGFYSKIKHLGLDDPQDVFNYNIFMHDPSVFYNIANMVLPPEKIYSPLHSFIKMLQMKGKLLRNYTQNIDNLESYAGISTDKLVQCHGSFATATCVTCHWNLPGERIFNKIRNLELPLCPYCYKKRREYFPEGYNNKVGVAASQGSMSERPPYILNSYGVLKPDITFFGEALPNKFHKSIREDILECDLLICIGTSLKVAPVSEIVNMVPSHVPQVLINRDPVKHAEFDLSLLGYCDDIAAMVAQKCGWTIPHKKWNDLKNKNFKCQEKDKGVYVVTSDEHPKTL

With `Oc1ccc(/C=C/c2cc(O)cc(O)c2)cc1` [Resveratrol, 3,5,4′-Trihydroxy-trans-stilbene], in test [1], the “concentrations at which inhibition of Sir2 was seen” value was > 100 µM. Moreover, the “optimum concentration of activator for Sir2 stimulation” value in test [1] fell in the range of 2 to 5 µM. Also, the “reduction of the frequency of rDNA recombination” value in test [2] (SIR2-dependent) was ~60%. The “effect on rDNA silencing” value in test [2] (URA3 reporter, 5-FOA) is given as “only minor effects on rDNA silencing”. Moreover, the “rDNA recombination in the presence of nicotinamide” value in test [2] (with Sir2 inhibitor nicotinamide) was “decreased”. In addition, the “worms alive on day 17” value in test [3] (50 worms strain N2, 100 μM, control 5 alive) was found to be 17 worms. Besides, the lifespan extension in test [3] (sir-2.1 mutants, 100 μM, heat-killed OP50, not statistically significant) is recorded as 5.2%; in test [3] (sir-2.1 mutants, 100 μM, live OP50, P=0.81) it was 3.3%; in test [3] (wild-type N2, 100 μM, live OP50) it was 12.6%. In addition, the “lifespan extended (maximum)” value in test [3] (wild-type worms, 100 μM, heat-killed or live E. coli) is listed as “up to 15%”. Moreover, the “activated SIRT1” value in test [4] amounted to 2.2 fold.
